Like-named read-outs stand apart in the source and are kept apart here.
System: mites
Experiment: Mite killing efficacy test with an in vitro model
Conditions: 30 µM drug solution
Procedure: Mite collection: Live mites were gently picked up from a cage box with cotton swabs or small tweezers, 17-26 live mites per group.
Drug treatment and detection method: 100 µL of a drug solution with a different concentration (drug solution prepared by 3% DMSO solution + 97% water and having a target final concentration of 30 µM) was aspirated with a pipette and added to a 24-well plate for each group, ensuring full contact between the drug and the mites. The mites were separately incubated at normal temperature for 5 min, transferred from each plate to another dry 24-well plate with the top sealed, and air-dried for about 1 h. Mite actions were observed, and the number of dead mites/the total number of mites was recorded. Then, the 24-well plate containing the mites was cultured at room temperature and relatively high humidity. The number of dead mites/the total number of mites was counted separately after 1 h, 2 h, 4 h, 6 h, 8 h, 22 h, and 24 h (time points after drug addition), and mite mortality rates were calculated. The project ended 24 h after drug addition.
At a corresponding time point, a mite mortality rate greater than or equal to 90% is denoted as "+++", a mite mortality rate less than 90% and greater than or equal to 50% is denoted as "++", and a mite mortality rate less than 50% is denoted as "+".

[1] = 4 h after drug addition, read-out: Mite Mortality Rate 4 h
[2] = 24 h after drug addition, read-out: Mite Mortality Rate 24 h

Structure (SMILES) | Mite Mortality Rate 4 h (4 h after drug addition) | Mite Mortality Rate 24 h (24 h after drug addition) | mortality at 30 µM [1] | mortality at 30 µM [2]
Cc1cc(C2=NOC(c3cc(Cl)cc(C(F)(F)F)c3)(C(F)(F)F)C2)ccc1C(=O)NCC(=O)NC1(C(F)(F)F)CC1 (racemic) [Example 007, 4-(5-(3-chloro-5-(trifluoromethyl)phenyl)-5-(trifluoromethyl)-4,5-dihydroisoxazol-3-yl)-2-methy 1-N-(2-oxo-2-((1-(trifluoromethyl)cyclopropyl)amino)ethyl)benzamide] | ++ (a mite mortality rate less than 90% and greater than or equal to 50% is denoted as "++") | +++ (a mite mortality rate greater than or equal to 90% is denoted as "+++") | – | –
Cc1cc(C2=NOC(c3cc(Cl)c(F)c(Cl)c3)(C(F)(F)F)C2)ccc1C(=O)NCC(=O)NC1(C(F)(F)F)CC1 (centres unmarked) [Example 001, 4-(5-(3,5-dichloro-4-fluorophenyl)-5-(trifluoromethyl)-4,5-dihydroisoxazol-3-yl)-2-methyl-N-(2-oxo-2-((1-(trifluoromethyl)cyclopropyl)amino)ethyl)benzamide] | – | – | < 50% | > 90%
Cc1cc(C2=NOC(c3cc(Cl)cc(Cl)c3)(C(F)(F)F)C2)ccc1C(=O)NCC(=O)NC1(C(F)(F)F)COC1 (centres unmarked) [Example 002, 4-(5-(3,5-dichlorophenyl)-5-(trifluoromethyl)-4,5-dihydroisoxazol-3-yl)-2-methyl-N-(2-oxo-2-((3-(trifluoromethyl)oxetan-3-yl)amino)ethyl)benzamide] | – | – | < 50% | > 90%
Cc1cc(C2=NOC(c3cc(Cl)c(Cl)c(Cl)c3)(C(F)(F)F)C2)ccc1C(=O)NCC(=O)N1CC(F)(CF)C1 (centres unmarked) [Example 003, N-(2-(3-fluoro-3-(fluoromethyl)azetidin-1-yl)-2-oxoethyl)-2-methyl-4-(5-(3,4,5-trichlorophenyl) -5-(trifluoromethyl)-4,5-dihydroisoxazol-3-yl)benzamide] | – | – | < 50% | > 90%
Cc1cc(C2=NOC(c3cc(Cl)c(Cl)c(Cl)c3)(C(F)(F)F)C2)ccc1C(=O)NCC(=O)NC1(C(F)(F)F)CC1 (centres unmarked) [Example 004, 2-methyl-N-(2-oxo-2-((1-(trifluoromethyl)cyclopropyl)amino)ethyl)-4-(5-(3,4,5-trichlorophenyl) -5-(trifluoromethyl)-4,5-dihydroisoxazol-3-yl)benzamide] | – | – | < 50% | > 90%
Cc1cc(C2=NOC(c3cc(Cl)c(F)c(Cl)c3)(C(F)(F)F)C2)ccc1C(=O)NCC(=O)N1CC(F)(CF)C1 (centres unmarked) [Example 005, 4-(5-(3,5-dichloro-4-fluorophenyl)-5-(trifluoromethyl)-4,5-dihydroisoxazol-3-yl)-N-(2-(3-fluoro-3-(fluoromethyl)azetidin-1-yl)-2-oxoethyl)-2-methylbenzamide] | – | – | 50 to 90% | > 90%
Cc1cc(C2=NOC(c3cc(Cl)cc(Cl)c3)(C(F)(F)F)C2)ccc1C(=O)NCC(=O)N1CCC1C(F)(F)F (centres unmarked) [Example 006, 4-(5-(3,5-dichlorophenyl)-5-(trifluoromethyl)-4,5-dihydroisoxazol-3-yl)-2-methyl-N-(2-oxo-2-(2-(trifluoromethyl)azetidin-1-yl)ethyl)benzamide] | – | – | < 50% | > 90%
Cc1cc(C2=NO[C@](c3cc(Cl)cc(C(F)(F)F)c3)(C(F)(F)F)C2)ccc1C(=O)NCC(=O)NC1(C(F)(F)F)CC1 [Example 009, (R)-4-(5-(3-chloro-5-(trifluoromethyl)phenyl)-5-(trifluoromethyl)-4,5-dihydroisoxazol-3-yl)-2-m ethyl-N-(2-oxo-2-((1-(trifluoromethyl)cyclopropyl)amino)ethyl)benzamide] | – | – | < 50% | < 50%
Cc1cc(C2=NOC(c3cc(Cl)cc(Cl)c3)(C(F)(F)F)C2)ccc1C(=O)NCC(=O)NC1(C(F)(F)F)CC1 (centres unmarked) [Example 010, 4-(5-(3,5-dichlorophenyl)-5-(trifluoromethyl)-4,5-dihydroisoxazol-3-yl)-2-methyl-N-(2-oxo-2-((1-(trifluoromethyl)cyclopropyl)amino)ethyl)benzamide] | – | – | 50 to 90% | > 90%
Cc1cc(C2=NO[C@](c3cc(Cl)cc(Cl)c3)(C(F)(F)F)C2)ccc1C(=O)NCC(=O)NC1(C(F)(F)F)CC1 [Example 012, (R)-4-(5-(3,5-dichlorophenyl)-5-(trifluoromethyl)-4,5-dihydroisoxazol-3-yl)-2-methyl-N-(2-oxo-2-((1-(trifluoromethyl)cyclopropyl)amino)ethyl)benzamide] | – | – | < 50% | < 50%
Cc1cc(C2=NOC(c3cc(Cl)cc(C(F)(F)F)c3)(C(F)(F)F)C2)ccc1C(=O)NCC(=O)N1CC(F)(CF)C1 (centres unmarked) [Example 013, 4-(5-(3-chloro-5-(trifluoromethyl)phenyl)-5-(trifluoromethyl)-4,5-dihydroisoxazol-3-yl)-N-(2-(3-fluoro-3-(fluoromethyl)azetidin-1-yl)-2-oxoethyl)-2-methylbenzamide] | – | – | > 90% | > 90%
Cc1cc(C2=NOC(c3cc(Cl)cc(Cl)c3)(C(F)(F)F)C2)ccc1C(=O)NCC(=O)N1CC(O)(C(F)(F)F)C1 (centres unmarked) [Example 014, 4-(5-(3,5-dichlorophenyl)-5-(trifluoromethyl)-4,5-dihydroisoxazol-3-yl)-N-(2-(3-hydroxy-3-(trifluoromethyl)azetidin-1-yl)-2-oxoethyl)-2-methylbenzamide] | – | – | < 50% | < 50%
Cc1cc(C2=NOC(c3cc(Cl)cc(Cl)c3)(C(F)(F)F)C2)ccc1C(=O)NCC1(NCC(F)(F)F)COC1 (centres unmarked) [Example 015] | + (a mite mortality rate less than 50% is denoted as "+") | + (a mite mortality rate less than 50% is denoted as "+") | – | –
Cc1cc(C2=NOC(c3cc(Cl)cc(Cl)c3)(C(F)(F)F)C2)ccc1C(=O)NCC(=O)N1CCCC1C(F)(F)F (centres unmarked) [Example 016, 4-(5-(3,5-dichlorophenyl)-5-(trifluoromethyl)-4,5-dihydroisoxazol-3-yl)-2-methyl-N-(2-oxo-2-(2-(trifluoromethyl)pyrrolidin-1-yl)ethyl)benzamide] | – | – | < 50% | < 50%
Cc1cc(C2=NOC(c3cc(Cl)cc(Cl)c3)(C(F)(F)F)C2)ccc1C(=O)NCC1(NCC(F)(F)F)CC1 (centres unmarked) [Example 017] | + (a mite mortality rate less than 50% is denoted as "+") | ++ (a mite mortality rate less than 90% and greater than or equal to 50% is denoted as "++") | – | –
Cc1cc(C2=NOC(c3cc(Cl)cc(Cl)c3)(C(F)(F)F)C2)ccc1C(=O)NCC(=O)NCC1(C(F)(F)F)CC1 (centres unmarked) [Example 018] | + (a mite mortality rate less than 50% is denoted as "+") | ++ (a mite mortality rate less than 90% and greater than or equal to 50% is denoted as "++") | – | –
Cc1cc(C2=NOC(c3cc(Cl)cc(Cl)c3F)(C(F)(F)F)C2)ccc1C(=O)NCC(=O)NC1(C(F)(F)F)CC1 (centres unmarked) [Example 019, 4-(5-(3,5-dichloro-2-fluorophenyl)-5-(trifluoromethyl)-4,5-dihydroisoxazol-3-yl)-2-methyl-N-(2-oxo-2-((1-(trifluoromethyl)cyclopropyl)amino)ethyl)benzamide] | – | – | 50 to 90% | > 90%
Cc1cc(C2=NOC(c3cc(Cl)cc(Cl)c3Cl)(C(F)(F)F)C2)ccc1C(=O)NCC(=O)NC1(C(F)(F)F)CC1 (centres unmarked) [Example 020, 2-methyl-N-(2-oxo-2-((1-(trifluoromethyl)cyclopropyl)amino)ethyl)-4-(5-(2,3,5-trichlorophenyl) -5-(trifluoromethyl)-4,5-dihydroisoxazol-3-yl)benzamide] | – | – | < 50% | 50 to 90%
Cc1cc(C2=NOC(c3cc(Cl)cc(Cl)c3)(C(F)(F)F)C2)ccc1C(=O)NCC(=O)N1CC(F)(C#N)C1 (centres unmarked) [Example 021, N-(2-(3-cyano-3-fluoroazetidin-1-yl)-2-oxoethyl)-4-(5-(3,5-dichlorophenyl)-5-(trifluoromethyl)-4,5-dihydroisoxazol-3-yl)-2-methylbenzamide] | – | – | < 50% | < 50%
Cc1cc(C2=NOC(c3cc(Cl)cc(Cl)c3)(C(F)(F)F)C2)ccc1C(=O)NCC(=O)N1CC(F)(F)C1 (centres unmarked) [Example 022, 4-(5-(3,5-dichlorophenyl)-5-(trifluoromethyl)-4,5-dihydroisoxazol-3-yl)-N-(2-(3,3-difluoroazetidin-1-yl)-2-oxoethyl)-2-methylbenzamide] | – | – | < 50% | 50 to 90%
Cc1cc(C2=NOC(c3cc(Cl)cc(Cl)c3)(C(F)(F)F)C2)ccc1C(=O)NCC(=O)N1CC(C(F)(F)F)C1 (centres unmarked) [Example 023, 4-(5-(3,5-dichlorophenyl)-5-(trifluoromethyl)-4,5-dihydroisoxazol-3-yl)-2-methyl-N-(2-oxo-2-(3-(trifluoromethyl)azetidin-1-yl)ethyl)benzamide] | – | – | < 50% | 50 to 90%
Cc1cc(C2=NOC(c3cc(Cl)cc(Cl)c3)(C(F)(F)F)C2)ccc1C(=O)NCC(=O)NC1(C#N)CC1 (centres unmarked) [Example 024, N-(2-((1-cyanocyclopropyl)amino)-2-oxoethyl)-4-(5-(3,5-dichlorophenyl)-5-(trifluoromethyl)-4,5-dihydroisoxazol-3-yl)-2-methylbenzamide] | – | – | < 50% | > 90%
